Assay results: PubChem BioAssay AID1648 (Sanford-Burnham Center for Chemical Genomics, 2009)
The source made the active and inactive calls. How the calls were made is not given here.

Target: Serine/threonine-protein kinase mTOR (Homo sapiens) (UniProt P42345)
Experiment: mTOR FRB domain ligand binding – biophysical, NMR (AID 1648)
Settings: NMR binding to FRB domain, chemical shift

Serine/threonine-protein kinase mTOR (Homo sapiens), sequence (P42345 2015-2114): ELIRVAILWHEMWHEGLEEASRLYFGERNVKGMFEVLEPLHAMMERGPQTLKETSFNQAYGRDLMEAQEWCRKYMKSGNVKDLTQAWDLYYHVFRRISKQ

| SMILES | Kd |
| --- | --- |
| O=c1cc(O)n(-c2ccc(F)cc2)c(=S)[nH]1 | > 4 mM (inactive) |
| CN1CCN(CC(O)c2ccccc2)CC1 (stereo unspecified) | > 4 mM (inactive) |
| Oc1ccc(-n2ccnc2)cc1 | > 4 mM (inactive) |
| Cc1c(-c2ccc(F)cc2)[n+](=O)c2c(n1[O-])CCC2 | > 4 mM (inactive) |
| CCc1noc(C)c1C(=O)N1CCOCC1 | > 4 mM (inactive) |
| COC(=O)NCc1cc2cc(Cl)ccc2[nH]1 | > 4 mM (inactive) |
| Cc1occc1C(=O)NCc1ccccc1F | > 4 mM (inactive) |
| Fc1ccc(F)c(CN2CCN(c3ncccn3)CC2)c1 | > 4 mM (inactive) |
| O=C1C2CC=C(Cl)CC2C(=O)N1c1ccccc1O (stereo unspecified) | > 4 mM (inactive) |
| COc1ccc(-c2c(O)c3c(OC)c4c(cc3oc2=O)OC(C)(C)CC4)cc1 | > 4 mM (inactive) |
| CC(=O)c1c(C)nc2ccccc2c1N | > 4 mM (inactive) |
| O=C(CNC(=O)c1ccc(F)cc1)NC1=NCCS1 | > 4 mM (inactive) |
| N#Cc1nc(-c2cccs2)oc1N1CCOCC1 | > 4 mM (inactive) |
| CCCNC(=O)c1cnc2n(c1=O)CCS2 | > 4 mM (inactive) |
| CC1(C)C2CC[C@]3(C)C(C(=O)C=C4[C@H]5C[C@@](C)(C(=O)O)CC[C@]5(C)CC[C@]43C)[C@@]2(C)CC[C@@H]1O (stereo partly specified) | > 4 mM (inactive) |
| Cc1nc2ccccc2c(=O)n1N1C(=O)CCCC1=O | > 4 mM (inactive) |
| O=c1c2ccccc2oc2ccccc12 | > 4 mM (inactive) |
| Oc1ccc(-c2n[nH]c(=S)n2Cc2ccco2)cc1 | > 4 mM (inactive) |
| CC(=O)CNc1cc(CNC(C)=O)c(C)cc1C | > 4 mM (inactive) |
| Cc1cc(=O)n2[nH]c(COc3ccccc3)nc2n1 | > 4 mM (inactive) |
| CCN1CCc2c(sc(N)c2C(N)=O)C1 | > 4 mM (inactive) |
| Cc1ccc2[nH]cc(CCN)c2c1 | > 4 mM (inactive) |
| Nc1n[nH]c(=S)n1-c1ccccc1 | > 4 mM (inactive) |
| Nc1c2c3c(sc2nc(=O)n1N)CCCC3 | > 4 mM (inactive) |
| COc1ccc(C)cc1S(=O)(=O)Nc1ccccc1C | > 4 mM (inactive) |

| SMILES | Kd |
| --- | --- |
| COc1ccc2c(c1)OCc1c-2oc2cc(OC)ccc12 | > 4 mM (inactive) |
| COc1ccc(C(=O)/C=C2\NC(=S)NC2=O)cc1 | > 4 mM (inactive) |
| COC(=O)C1CSCC1=O (stereo unspecified) | > 4 mM (inactive) |
| NC(=O)N1CCc2ccccc21 | > 4 mM (inactive) |
| O=S(=O)(O)c1cc[n+]([O-])cc1 | > 4 mM (inactive) |
| COc1cc(OC)c2c(OC)c(-c3ccc4c(c3)OCO4)c(=O)oc2c1 | > 4 mM (inactive) |
| O=C(O)C1COc2ccccc2C1 (stereo unspecified) | > 4 mM (inactive) |
| COc1c2c(cc3c1OCO3)C13C=C[C@H](OC)CC1N(C2)CC3O (stereo partly specified) | > 4 mM (inactive) |
| O=C(O)c1cnc2n(c1=O)CCS2 | > 4 mM (inactive) |
| O=C(NC(=S)NCc1cccnc1)c1ccco1 | > 4 mM (inactive) |
| C[C@H]1O[C@@H](O[C@H]2[C@@H](O)C[C@H](O[C@H]3[C@@H](O)C[C@H](O[C@H]4CC[C@]5(C)C6CC[C@]7(C)[C@@H](C8=CC(=O)OC8)CC[C@]7(O)C6CC[C@@H]5C4)O[C@@H]3C)O[C@@H]2C)C[C@H](O)[C@@H]1O (stereo partly specified) | > 4 mM (inactive) |
| NCc1ccc2c(c1)OCCCO2 | > 4 mM (inactive) |
| Cc1ccc(/C=C/C(=O)O)cc1S(=O)(=O)NCCO | > 4 mM (inactive) |
| CC(=O)c1ccc(Cc2cnc(N)s2)cc1 | > 4 mM (inactive) |
| CC(=O)n1nc(-c2cccnc2)nc1N | > 4 mM (inactive) |
| CNC(=S)NCCN1CCOCC1 | > 4 mM (inactive) |
| O=c1cnnc(Nc2ccc(O)cc2)[nH]1 | > 4 mM (inactive) |
| NC(CCC(=O)Nc1ccc([N+](=O)[O-])cc1)C(=O)O (stereo unspecified) | > 4 mM (inactive) |
| CS(=O)(=O)N1CCN(C(=O)Cc2cccs2)CC1 | > 4 mM (inactive) |
| Cn1c(SCC(N)=O)nc2ccccc2c1=O | > 4 mM (inactive) |
| Cc1nc(-c2ccccc2)sc1C(N)=O | > 4 mM (inactive) |
| CN1CCN(CC(=O)Nc2ccccc2)CC1 | > 4 mM (inactive) |
| NC1CSCC1O (stereo unspecified) | > 4 mM (inactive) |
| CC(=O)Nc1ccc(NC2SC(=O)NC2=O)cc1 (stereo unspecified) | > 4 mM (inactive) |
| Oc1cc(O)cc(/C=C/c2ccccc2)c1 | > 4 mM (inactive) |

| SMILES | Kd |
| --- | --- |
| O=C1NC(=O)C(C(C[N+](=O)[O-])c2ccc(O)cc2)C(=O)N1 (stereo unspecified) | > 4 mM (inactive) |
| CC(C)=NNC(=O)C(=O)NC(C)(C)C | > 4 mM (inactive) |
| Cn1c(=O)c2c(ncn2CCNC2=NCCC2)n(C)c1=O | > 4 mM (inactive) |
| Cc1nc(-c2ccc(C(=O)N3CCOCC3)cc2)cs1 | > 4 mM (inactive) |
| COc1ccccc1-c1noc(-c2ccncc2)n1 | > 4 mM (inactive) |
| O=S1(=O)CCC(NC(=S)N2CCOCC2)C1 (stereo unspecified) | > 4 mM (inactive) |
| CC(C)n1c(-c2ccncc2)n[nH]c1=S | > 4 mM (inactive) |
| Cc1ccc(CN2CCN(C(=O)C3CCC3)CC2)cc1 | > 4 mM (inactive) |
| Cc1nnc(SCC(=O)NC2CCCC2)[nH]c1=O | > 4 mM (inactive) |
| Nc1nc2ccc(S(N)(=O)=O)cc2s1 | > 4 mM (inactive) |
| COC(=O)[C@@]1(C)CCC[C@]2(C)c3ccc(O)c(C(C)C)c3CCC12 (stereo partly specified) | > 4 mM (inactive) |
| COc1ccc([C@@H]2CC(=O)c3c(O)cc(O)cc3O2)cc1O | > 4 mM (inactive) |
| Cc1cc(N)n(-c2ccccc2)n1 | > 4 mM (inactive) |
| CN1CCN(S(=O)(=O)c2ccc(=O)[nH]c2)CC1 | > 4 mM (inactive) |
| Nc1ncnc2c1ncn2C1O[C@H](COP(=O)(O)O)[C@@H](O)[C@H]1O (stereo partly specified) | > 4 mM (inactive) |
| CCc1c(C(=O)Nc2ccncc2)csc1C | > 4 mM (inactive) |
| C/C=C(\C)C(=O)O[C@@H]1c2c(ccc3ccc(=O)oc23)OC(C)(C)[C@@H]1OC(C)=O | > 4 mM (inactive) |
| Cc1cc(=O)cc(C)n1NC(N)=S | > 4 mM (inactive) |
| COc1ccc(C2(C)NC(=O)NC2=O)cc1 (stereo unspecified) | > 4 mM (inactive) |
| Cc1csc2nc3ccccc3c(=O)n12 | > 4 mM (inactive) |
| COc1ccc2c(c1)c1n[nH]c(=S)nc1n2C | > 4 mM (inactive) |
| Cn1c(=O)c2c(ncn2C)n(C)c1=O | > 4 mM (inactive) |
| CCOc1ccc2ccccc2c1C(=O)N1CCOCC1 | > 4 mM (inactive) |
| NC(=O)C(=O)Nc1nc(-c2ccccc2)cs1 | > 4 mM (inactive) |
| S=C(NC1=NCCS1)Nc1ccccc1 | > 4 mM (inactive) |

| SMILES | Kd |
| --- | --- |
| COc1cc(/C=C2/NC(=S)NC2=O)cc(Cl)c1O | > 4 mM (inactive) |
| OC1CCNC2CCCCC12 (stereo unspecified) | > 4 mM (inactive) |
| O=[N+]([O-])c1cccc(-c2nnco2)c1 | > 4 mM (inactive) |
| N/N=C1\CCCc2c1no[n+]2[O-] | > 4 mM (inactive) |
| NS(=O)(=O)c1ccc(NC(=S)NC2CC2)cc1 | > 4 mM (inactive) |
| CSc1ncnc2nc[nH]c12 | > 4 mM (inactive) |
| CC(C)Nc1ncnc2c1nnn2C | > 4 mM (inactive) |
| Cc1ccc(C(=O)N2CCOCC2)cc1Cl | > 4 mM (inactive) |
| COc1c2occc2cc2ccc(=O)oc12 | > 4 mM (inactive) |
| CN(C)C(=O)CSc1nc(N)cc(=O)[nH]1 | > 4 mM (inactive) |
| CCCCCCCCCCCC[C@H](C(=O)O)[C@@H](C)C(=O)O | > 4 mM (inactive) |
| NC(=O)C1CCN(C(=S)c2cccs2)CC1 | > 4 mM (inactive) |
| O=C(O)c1ccc(Oc2ccccc2)nc1 | > 4 mM (inactive) |
| CC(C)NC(=S)NCc1cnn(C)c1 | > 4 mM (inactive) |
| NC(=O)CN1CCCCCC1=O | > 4 mM (inactive) |
| COC(=O)Nc1nc2c(C)cccc2s1 | > 4 mM (inactive) |
| Nc1nc(-c2nc3ccccc3[nH]2)cs1 | > 4 mM (inactive) |
| O=c1nc(N2CCCCC2)nc2n1CCO2 | > 4 mM (inactive) |
| COc1cc(-c2coc3cc(OC)c(OC)c(OC)c3c2=O)cc(OC)c1OC | > 4 mM (inactive) |
| CC(=O)c1cccc(NC2=NCC(C)(C)S2)c1 | > 4 mM (inactive) |
| Cc1ccc(N2C(=O)CCC2=O)cc1 | > 4 mM (inactive) |
| O=C(Nc1ccccc1)N1CCOCC1 | > 4 mM (inactive) |
| O=c1c(O)c(-c2ccc(O)cc2O)oc2cc(O)cc(O)c12 | > 4 mM (inactive) |
| Cc1ccc(-n2ncc(C#N)c2/N=C/N(C)C)cc1 | > 4 mM (inactive) |
| c1ccc(Cn2cccc2)nc1 | > 4 mM (inactive) |

| SMILES | Kd |
| --- | --- |
| NC(=O)c1ccsc1NC(=O)C1=COCCO1 | > 4 mM (inactive) |
| Cc1nn(CC(=O)Nc2ccccc2)c(=O)c2ccccc12 | > 4 mM (inactive) |
| C(=N\n1cnnc1)/c1cccs1 | > 4 mM (inactive) |
| CC(=O)c1cnc2nc(C(F)(F)F)nn2c1C | > 4 mM (inactive) |
| Cc1nn(C)c(N2CCOCC2)c1N | > 4 mM (inactive) |
| CC(=O)Oc1c(C)c(C)c2c(c1C)CCC(C)(CCCC(C)CCCC(C)CCCC(C)C)O2 (stereo unspecified) | > 4 mM (inactive) |
| Cc1ccccc1OCC(=O)O | > 4 mM (inactive) |
| O=C(O)CN1CCN(C2CCCC2)CC1 | > 4 mM (inactive) |
| Cc1onc(-c2ccccc2)c1C(=O)Nc1ccncc1 | > 4 mM (inactive) |
| COc1cc2c(cc1OC)[C@@H]1C(=O)c3ccc4c(c3O[C@@H]1CO2)C=CC(C)(C)O4 | > 4 mM (inactive) |
| O=C(Nc1ccon1)c1sc2cc(F)ccc2c1Cl | > 4 mM (inactive) |
| O=C(C1CCCCC1)N1CCN(c2ccccc2F)CC1 | > 4 mM (inactive) |
| CCn1nnc(NC(=O)c2cc3ccccc3o2)n1 | > 4 mM (inactive) |
| OCc1ccc(OC(F)(F)F)cc1 | > 4 mM (inactive) |
| O=C(O)CCS(=O)(=O)c1ccccc1 | > 4 mM (inactive) |
| COc1ccc(Cl)cc1NC(=O)c1ccco1 | > 4 mM (inactive) |
| O=c1nc(C(F)(F)F)nc2ccccn12 | > 4 mM (inactive) |
| NC(=O)CSc1nnc2ccc(-c3ccccn3)nn12 | > 4 mM (inactive) |
| Cc1cccc(OCc2nnc(N)s2)c1 | > 4 mM (inactive) |
| CCOC(=O)c1cc(C)n(C)n1 | > 4 mM (inactive) |
| CSc1ccccc1NC(=O)c1cccnc1 | > 4 mM (inactive) |
